Assay results: US8999970B2, “Administration of an anti-obesity compound to individuals with renal impairment” (Arena Pharmaceuticals, Inc., priority 2010, dated 2015)

Columns and labels:
[1] = Preclinical toxicology: lorcaserin, M1 and M5 pharmacokinetics after oral administration of lorcaserin, 52 wk, monkeys; details: for AUC0-inf / AUClast / Cmax / tmax: Monkeys, 52 wk
Protocol: Lorcaserin doses of 0, 2, 10, 50, and 125 mg/kg in a 5 mL/kg dose volume were administered by nasogastric intubation once daily for 12 months to cynomolgus monkeys (4 to 6/sex/group). Two animals/sex from the control, 50 and 125 mg/kg groups were continued on study without further dosing for an additional 4 weeks prior to termination. For the first 91 days of the study, dose solutions were prepared using anhydrous lorcaserin. Starting on Day 92 and continuing for the remainder of the study, dose solutions were prepared using lorcaserin hemihydrate to match the intended commercial form. […] Evaluations included clinical signs, food consumption, BW, electrocardiograms, ophthalmic exams, and clinical pathology indices. Blood samples were collected for TK analysis on Day 1, Week 4, Day 91, Day 92, and Week 52. A full necropsy was conducted on all animals, and tissues were collected, preserved, processed, and examined microscopically. Additional sections of heart were collected to allow comprehensive evaluation of all heart valves. Heart histopathologic evaluation included atria, ventricles, interventricular septum, both AV valves (mitral and tricuspid), and the aortic and pulmonic valves.

[2] = Clinical trial APD356-016: plasma and urine pharmacokinetics of lorcaserin, M1 and M5 after a 10 mg dose in subjects with renal impairment; details: for tmax: median; for Ae0-120 / fe0-120: urine
Protocol: The interaction of renal insufficiency with the pharmacokinetics, tolerability and safety of lorcaserin were evaluated in a formal PK study in subjects with renal impairment and in the populations studied in phase 2 and phase 3 clinical studies.
The pharmacokinetic properties of lorcaserin in subjects with varying degrees of renal impairment were evaluated in clinical trial APD356-016. At the time of study conduct and analysis, subjects were assigned to renal impairment groups based on creatinine clearance calculated using IDEAL body weight (Table 1). This calculation was used to avoid overestimation of creatinine clearance due to the excess body weight (overweight and obese subjects were enrolled in the trial). Summaries of pharmacokinetic properties by group assignment using creatinine clearance calculated using ACTUAL body weights are also provided in the sections that follow.
The FDA expects a reasonable margin between anticipated exposures and exposures that may produce toxicity. A reasonable margin can vary depending on the expected toxicity, but generally is an order of magnitude (10 times), but can sometimes be less for mild toxicity.
Table 13. Summary of Plasma Concentrations (ng/mL) of HSO3-APD356 Metabolite over Time by Group: Severe Renal Impairment Not Receiving Dialysis (see Table 13 next page)
Subject number 3140-505 was on dialysis and grouped in the end stage renal disease group.

[3] = lorcaserin 10 mg/kg/day oral, F
[4] = lorcaserin 10 mg/kg/day oral, M
[5] = lorcaserin 50 mg/kg/day oral, F
[6] = lorcaserin 50 mg/kg/day oral, M
[7] = lorcaserin 125 mg/kg/day oral, F
[8] = lorcaserin 125 mg/kg/day oral, M
[9] = 10 mg dose, Mild, actual BW groups
[10] = 10 mg dose, Mild, ideal BW groups
[11] = 10 mg dose, Moderate, actual BW groups
[12] = 10 mg dose, Moderate, ideal BW groups
[13] = 10 mg dose, Normal, actual BW groups
[14] = 10 mg dose, Normal, ideal BW groups
[15] = 10 mg dose, Severe N = 1, actual BW groups
[16] = 10 mg dose, Severe, ideal BW groups
[17] = ESRD, 10 mg QD Authentic, Day 1
[18] = Mild, 10 mg QD Authentic, Day 1
[19] = Moderate, 10 mg QD Authentic, Day 1
[20] = Normal, 10 mg QD Authentic, Day 1
[21] = Severe, 10 mg QD Authentic, Day 1

**Q.** What does the source list for `C[C@H]1CN(C(=O)O[C@@H]2O[C@H](C(=O)O)[C@@H](O)[C@H](O)[C@H]2O)CCc2ccc(Cl)cc21` [Compound M5, N-carbamoyl glucuronide of lorcaserin]?
**A.** AUC0-inf ([1]; lorcaserin 2 mg/kg/day oral, F): 2130 ± 820 ng·h/mL; AUClast ([1]; lorcaserin 2 mg/kg/day oral, F): 1760 ± 830 ng·h/mL; Cmax ([1]; lorcaserin 2 mg/kg/day oral, F): 771 ± 104 ng/mL; tmax ([1]; lorcaserin 2 mg/kg/day oral, F): 0.5 ± 0.0 h; AUC0-inf ([1]; lorcaserin 2 mg/kg/day oral, M): 2380 ± 290 ng·h/mL; AUClast ([1]; lorcaserin 2 mg/kg/day oral, M): 1820 ± 570 ng·h/mL; Cmax ([1]; lorcaserin 2 mg/kg/day oral, M): 635 ± 310 ng/mL; tmax ([1]; lorcaserin 2 mg/kg/day oral, M): 0.8 ± 0.3 h; AUC0-inf [1, 3]: 6520 ± 1520 ng·h/mL; AUClast [1, 3]: 6140 ± 1710 ng·h/mL; tmax [1, 3]: 1.0 ± 0.7 h; AUC0-inf [1, 4]: 13600 ± 5000 ng·h/mL; AUClast [1, 4]: 12500 ± 6100 ng·h/mL; Cmax [1, 4]: 2480 ± 1140 ng/mL; tmax [1, 4]: 1.8 ± 0.5 h; AUC0-inf [1, 5]: 40400 ± 13400 ng·h/mL; AUClast [1, 5]: 38700 ± 12700 ng·h/mL; Cmax [1, 5]: 3600 ± 620 ng/mL; tmax [1, 5]: 3.2 ± 1.8 h; AUC0-inf [1, 6]: 71400 ± 26600 ng·h/mL; AUClast [1, 6]: 69000 ± 25800 ng·h/mL; Cmax [1, 6]: 7040 ± 2050 ng/mL; tmax [1, 6]: 2.3 ± 1.9 h; AUC0-inf [1, 7]: 140000 ± 78000 ng·h/mL; AUClast [1, 7]: 134000 ± 78000 ng·h/mL; Cmax [1, 7]: 19700 ± 13500 ng/mL; tmax [1, 7]: 2.7 ± 2.0 h; AUC0-inf [1, 8]: 182000 ± 77000 ng·h/mL; AUClast [1, 8]: 170000 ± 64000 ng·h/mL; Cmax [1, 8]: 15800 ± 3700 ng/mL; tmax [1, 8]: 2.2 ± 1.9 h; AUC0-inf in monkeys relative to predicted daily exposure in moderate renal impairment ([1]; monkeys 2 mg/kg/day): approximately equal; AUC0-inf in monkeys relative to predicted daily exposure in severe renal impairment ([1]; monkeys 2 mg/kg/day (NOAEL), human 10 mg BID): approximately half; Cmax in monkeys relative to predicted Cmax in severe renal impairment ([1]; monkeys 2 mg/kg/day (NOAEL), human 10 mg BID steady state): 2.8-3.5 times; Exposure in monkeys relative to predicted daily exposure in moderate renal impairment ([1]; monkeys 10 mg/kg/day): 3.0-6.3 times; AUC0-inf exposure margin, monkeys vs predicted daily exposure in severe renal impairment ([1]; monkeys 10 mg/kg/day, human 10 mg BID): 1.5-3.2 fold; Dose proportionality of plasma exposure ([1]; monkeys, Day 1, 2 to 125 mg/kg, both sexes): more than dose proportional; Exposure relative to the concomitant lorcaserin exposure, higher ([1]; monkeys, single or multiple doses of lorcaserin): up to 3 fold; % AUC Extrapolated ([2]; 10 mg dose, ESRD (Period 1)): 14.7%; AUC0-inf ([2]; 10 mg dose, ESRD (Period 1)): 11200 ng·h/mL; AUC(0-t) ([2]; 10 mg dose, ESRD (Period 1)): 9530 ng·h/mL; AUClast ([2]; 10 mg dose, ESRD (Period 1)): 9530 ng·h/mL; Cmax ([2]; 10 mg dose, ESRD (Period 1)): 300 ng/mL; MRTinf ([2]; 10 mg dose, ESRD (Period 1)): 38.6 h; t1/2z ([2]; 10 mg dose, ESRD (Period 1)): 25.7 h; tmax ([2]; 10 mg dose, ESRD (Period 1)): 3.00 h; % AUC Extrapolated ([2]; 10 mg dose, ESRD (Period 2)): 26.9%; AUC0-inf ([2]; 10 mg dose, ESRD (Period 2)): 11900 ng·h/mL; AUC(0-t) ([2]; 10 mg dose, ESRD (Period 2)): 8240 ng·h/mL; AUClast ([2]; 10 mg dose, ESRD (Period 2)): 8240 ng·h/mL; Cmax ([2]; 10 mg dose, ESRD (Period 2)): 231 ng/mL; MRTinf ([2]; 10 mg dose, ESRD (Period 2)): 59.1 h; t1/2z ([2]; 10 mg dose, ESRD (Period 2)): 40.5 h; tmax ([2]; 10 mg dose, ESRD (Period 2)): 3.10 h; % AUC0-inf Extrapolated [2, 9]: 14.5%; AUC0-inf [2, 9]: 1040 ng·h/mL; AUClast [2, 9]: 914 ng·h/mL; Cmax [2, 9]: 91.9 ng/mL; MRTinf [2, 9]: 16.6 h; T1/2z [2, 9]: 13.5 h; tmax [2, 9]: 2 h; % AUC0-inf Extrapolated [2, 10]: 17.7%; AUC0-inf [2, 10]: 583 ng·h/mL; AUC(0-t) [2, 10]: 482 ng·h/mL; Cmax [2, 10]: 62.4 ng/mL; MRTinf [2, 10]: 13.5 h; T1/2z [2, 10]: 10.7 h; tmax [2, 10]: 2.00 h; % AUC0-inf Extrapolated [2, 11]: 12.1%; AUC0-inf [2, 11]: 1700 ng·h/mL; AUClast [2, 11]: 1510 ng·h/mL; Cmax [2, 11]: 134 ng/mL; MRTinf [2, 11]: 18.5 h; T1/2z [2, 11]: 14.4 h; tmax [2, 11]: 2 h; % AUC0-inf Extrapolated [2, 12]: 15.6%; AUC0-inf [2, 12]: 1100 ng·h/mL; AUC(0-t) [2, 12]: 944 ng·h/mL; Cmax [2, 12]: 96.4 ng/mL; MRTinf [2, 12]: 18.5 h; T1/2z [2, 12]: 15.4 h; tmax [2, 12]: 2.00 h; % AUC0-inf Extrapolated [2, 13]: 23.1%; AUC0-inf [2, 13]: 498 ng·h/mL; AUClast [2, 13]: 381 ng·h/mL; Cmax [2, 13]: 66.2 ng/mL; MRTinf [2, 13]: 14.2 h; T1/2z [2, 13]: 11.7 h; tmax [2, 13]: 2 h; % AUC0-inf Extrapolated [2, 14]: 26.3%; AUC0-inf [2, 14]: 475 ng·h/mL; AUC(0-t) [2, 14]: 345 ng·h/mL; Cmax [2, 14]: 70.5 ng/mL; MRTinf [2, 14]: 14.6 h; T1/2z [2, 14]: 12.2 h; tmax [2, 14]: 1.00 h; % AUC0-inf Extrapolated [2, 15]: 2.59%; AUC0-inf [2, 15]: 6480 ng·h/mL; AUClast [2, 15]: 6310 ng·h/mL; Cmax [2, 15]: 214 ng/mL; MRTinf [2, 15]: 33.4 h; T1/2z [2, 15]: 23.1 h; tmax [2, 15]: 4 h; % AUC0-inf Extrapolated [2, 16]: 8.46%; AUC0-inf [2, 16]: 2470 ng·h/mL; AUC(0-t) [2, 16]: 2290 ng·h/mL; Cmax [2, 16]: 153 ng/mL; MRTinf [2, 16]: 20.0 h; T1/2z [2, 16]: 14.9 h; tmax [2, 16]: 2.50 h; Ae0-120 [2, 9]: 7470 µg; fe0-120 [2, 9]: 0.417; Ae0-120 [2, 10]: 7160 µg; fe0-120 [2, 10]: 0.399; Ae0-120 [2, 11]: 6480 µg; fe0-120 [2, 11]: 0.361; Ae0-120 [2, 12]: 8000 µg; fe0-120 [2, 12]: 0.446; Ae0-120 [2, 13]: 8210 µg; fe0-120 [2, 13]: 0.458; Ae0-120 [2, 14]: 8540 µg; fe0-120 [2, 14]: 0.476; Ae0-120 [2, 15]: 6720 µg; fe0-120 [2, 15]: 0.375; Ae0-120 [2, 16]: 6300 µg; fe0-120 [2, 16]: 0.351; Amount in the body cleared during a standard 4-hour hemodialysis procedure ([2]; ESRD): Approximately 18%; Hemodialysis extraction ratio ([2]; ESRD): 18.4%; Removal by hemodialysis ([2]; ESRD): partially removed; AUC24 hr [2, 17]: 9530 ng·h/mL; Cmax [2, 17]: 300 ng/mL; t1/2 [2, 17]: 25.7 h; AUC24 hr [2, 18]: 482 ng·h/mL; Cmax [2, 18]: 62.4 ng/mL; t1/2 [2, 18]: 10.7 h; AUC24 hr [2, 19]: 944 ng·h/mL; Cmax [2, 19]: 96.4 ng/mL; t1/2 [2, 19]: 15.4 h; AUC24 hr [2, 20]: 345 ng·h/mL; Cmax [2, 20]: 70.5 ng/mL; t1/2 [2, 20]: 12.2 h; AUC24 hr [2, 21]: 2290 ng·h/mL; Cmax [2, 21]: 153 ng/mL; t1/2 [2, 21]: 14.9 h; Exposure (Geometric Mean Ratio for AUCinf) increase compared to normal subjects ([2]; mild (CLcr=51-80 mL/min)): 1.2 fold; Terminal half-life prolonged by ([2]; mild renal impairment): 0%; Exposure (Geometric Mean Ratio for AUCinf) increase compared to normal subjects ([2]; moderate (CLcr=31-50 mL/min)): 2.3 fold; Terminal half-life prolonged by ([2]; moderate renal impairment): 26%; Fractional excretion ([2]; normal renal function): 48%; Exposure (Geometric Mean Ratio for AUCinf) increase compared to normal subjects ([2]; severe (CLcr=5-30 mL/min)): 5.2 fold; Fractional excretion ([2]; severe renal impairment): 35%; Terminal half-life prolonged by ([2]; severe renal impairment): 22%; Highest individual AUC0-inf in a subject not on hemodialysis ([2]; subject 3140-010, creatinine clearance 9.9 mL/min): 6480 ng·h/mL; Highest observed Cmax in the clinical study ([2]; subject with ESRD (#3140-505)): 520 ng/mL; Highest AUC0-inf overall ([2]; subject with ESRD on hemodialysis): 20800 ng·h/mL
